Results on one compound are retold here after PMC11279931, “Development and Evaluation of Docetaxel-Loaded Nanostructured Lipid Carriers for Skin Cancer Therapy” (Pharmaceutics, 2024).

Details of data set [1]: method as in PMID 32164731, PMID 33531521, PMID 31310876, PMID 25974386. The conditions noted are these: cited from earlier work.
Details of data set [2]: method as in PMID 32164731, PMID 25974386. The conditions noted are these: cited from earlier work.
A short description of data set [3]: Docetaxel equilibrium solubility in molten solid lipids. It is filed as physicochemical. The conditions noted are these: melted state at 75 °C, 24 h. The method, then:
To assess the solubility of the active substance, various solid lipids were examined (such as tetradecanoic acid, decanoic acid, palmitic acid, stearic acid, GMS-SE, GMS, sorbitan monostearate, cetyl palmitate, Gelucire® 43/01, and Suppocire® NAS 50). Initially, 500 mg of each solid lipid was accurately weighed and melted. Subsequently, excess docetaxel was added to the molten lipid. The drug–lipid mixture was kept at a constant temperature of 75 °C, thus maintaining a minimum of 10 °C above the melting point of the solid lipids. The mixture was stirred at 750 rpm for 24 h. Using preheated utensils, a predetermined amount of supernatant was carefully transferred into a 5 mL volumetric flask. The transfer was done by weight to ensure precision and consistency in sample size across all tests. The transferred sample was dissolved using a suitable solvent selected based on its compatibility with both the lipid and docetaxel. Choices like methanol, dichloromethane, DMSO, or their mixtures were used depending on their efficacy in dissolving the sample thoroughly. […]
For the quantitative analysis of docetaxel, a Jasco LC-4000 Series HPLC system (JASCO Corporation, Tokyo, Japan) containing a quaternary pump (model PU-4180), an autosampler (model AS-4150), a DAD detector (model MD-4010), and a column thermostat (model CO-4061) was employed. […]

For data set [4], the system named is HUVEC normal cells. Briefly: MTS cytotoxicity assay. It is filed as cell-based, human. On the procedure: SK-MEL-24 (human melanoma cell line—HTB-71) and HUVEC (human primary umbilical vein endothelial cells—CRL-1730) were purchased from the American Type Culture Collection (ATCC). HUVEC normal cells were used as a reference. Adherent cells were maintained in culture in DMEM/F12 medium added by 2 mM L-glutamine, 10% fetal bovine serum, 100 units/mL penicillin, 100 μg/mL streptomycin, and incubated at 37 °C in 5% CO2 humidified atmosphere. After 24 h, adherent cells were treated with different concentrations of the compounds for different timeframes. A 5-FU conventional oncology drug used in cancer treatments can be used as a positive control of the experiments. […]
All assays were performed in triplicate in 96-well microtiter plates with flat bottom (Falcon), using CellTiter 96 Aqueous One Solution Cell Proliferation Assay (Promega, Madison, WI, USA), an MTS-based colorimetric assay. […] The reduction of the tetrazolium compound to formazan was spectrophotometrically measured at λ = 492 nm using a Dynex plate reader (DYNEX Technologies MRS, Chantilly, VA, USA). The percentage of viability compared to untreated cells (considered 100% viable) was calculated with the formula:(2) Cell viability=absorbance of treated cells−absorbance of culture medium/absorbance of untreated cells−absorbance of culture medium×100 […]
For orientation: Tetrazolium dyes change colour on reduction, which living cells bring about.

The subject of data set [5] is HUVEC normal cells. As to the kind of experiment: Apoptosis, Annexin V-FITC/PI flow cytometry. The conditions noted are these: 50 μg/mL, 24 h; untreated approximately 7–8%. It is filed as cell-based, human. On the procedure: (§1) SK-MEL-24 (human melanoma cell line—HTB-71) and HUVEC (human primary umbilical vein endothelial cells—CRL-1730) were purchased from the American Type Culture Collection (ATCC). HUVEC normal cells were used as a reference. Adherent cells were maintained in culture in DMEM/F12 medium added by 2 mM L-glutamine, 10% fetal bovine serum, 100 units/mL penicillin, 100 μg/mL streptomycin, and incubated at 37 °C in 5% CO2 humidified atmosphere. After 24 h, adherent cells were treated with different concentrations of the compounds for different timeframes. A 5-FU conventional oncology drug used in cancer treatments can be used as a positive control of the experiments. Cell treatments of compounds were carried out using concentrations of 200, 100, 50, 25, 12.5, 6.25, 3.125, and 1.56 μg/mL of the drug. Then, cells were detached with a nonenzymatic PBS/1 mM EDTA solution washed twice in PBS.
(§2) The apoptosis assay was performed according to the manufacturer’s instructions using the Annexin V-FITC kit from BD Biosciences. Cells treated and untreated with the experimental compound were resuspended in a cold binding buffer. The percentages of apoptotic cells were determined by double staining with Annexin V-FITC/PI. In each tube was added 400 μL of Annexin V binding buffer and the 5000 cells/sample for 15 min in the dark at room temperature. The cells were analyzed using a FACS CantoII flow-cytometer (Becton Dickinson—BD). The analysis was performed using DIVA 6.2 software to discriminate viable cells (FITC-PI-) from necrotic cells (FITC+PI+) and early apoptosis (FITC+PI-) from late apoptosis.
(A flow cytometer gives signals particle by particle.)

For data set [6], the system named is SK-MEL-24 tumor cells. As to the kind of experiment: Apoptosis, Annexin V-FITC/PI flow cytometry. The conditions noted are these: 5 and 50 μg/mL. It is filed as cell-based, human. On the procedure:
as §1, §2

For data set [7], the system named is HUVEC normal cells. Briefly: Cell cycle analysis by flow cytometry. It is filed as cell-based, human. On the procedure:
as §1
(§3) In this experiment, 5 × 10^5 cells that had been previously fixed were washed and resuspended in PBS. The CycleTEST PLUS DNA Reagent kit from BD Biosciences was used according to the manufacturer’s protocol for the assay. The probes were kept in the dark and at 4 °C until data acquisition by flow cytometry (Becton Dickinson—BD) using a FACSCantoII flow cytometer from BD. The ModFIT v3.2 software was used to analyze the data and estimate the DNA index (DI) and progression through cell cycle phases.

Data set [8] relates to SK-MEL-24 tumor cells. As to the kind of experiment: Cell cycle analysis by flow cytometry. It is filed as cell-based, human. On the procedure: as §1, §3
Data set [9] in a line: Thermogravimetric analysis. The conditions noted are these: TGA, 10 °C/min, nitrogen. It is filed as physicochemical. The method, then:
Thermogravimetric analysis (TGA) was performed for NLC-DTX, NLC-Blank, and their components (DTX, GC, G43/01, MCT, S-PC-3, T80, mannitol) using thermal analyzer TGA Q5000IR (TA Instruments, New Castle, DE, USA). TGA curves were generated with a heating rate of 10 °C/min over a temperature range from room temperature to 700 °C, under a dynamic nitrogen atmosphere (50 mL/min). The samples were placed in a platinum pan (100 µL).

Values after ≈ are worked out from the molar mass of the structure shown. Some results are limits rather than exact numbers.

The IC50 is the concentration that inhibits the measured activity by half.

Turning to `CC(=O)O[C@@]12CO[C@@H]1C[C@H](O)[C@@]1(C)C(=O)[C@H](O)C3=C(C)[C@@H](OC(=O)[C@H](O)[C@@H](NC(=O)OC(C)(C)C)c4ccccc4)C[C@@](O)([C@@H](OC(=O)c4ccccc4)[C@H]21)C3(C)C` [DTX, Docetaxel], in data set [1], the water solubility was 4.93 µg/mL (≈ 6.1 µM). The logp value in data set [2] was 4.1. Further, in data set [3], the “docetaxel solubility in Gelucire 43/01” value worked out at 10 mg/g. Moreover, the “docetaxel solubility in tetradecanoic acid” value in [3] is given as 16 mg/g. Besides, the IC50 in the data set on HUVEC normal cells [4] (Homo sapiens, HUVEC, tested range 1.56–200 μg/mL, read-out: IC50 on HUVECs) was less than 1.56 µg/mL. Moreover, the “cell death (reduction in HUVEC viability)” value in the data set with HUVEC normal cells [4] (all tested concentrations (1.56–200 μg/mL), after 24 and 48 h) was “over 50%”. In the data set on HUVEC normal cells [5], the apoptosis stood at 12.3%. The effect on apoptosis entry in the data set with SK-MEL-24 tumor cells [6] (24 and 48 h, untreated approximately 4–5%) was “sustained increases in apoptosis”. Besides, the increase in apoptosis result in the data set with SK-MEL-24 tumor cells [6] (after 48 h, vs untreated) is on record as “two-fold”. Besides, the cell cycle alterations result in the data set on HUVEC normal cells [7] (50 μg/mL, 24 h) is “G2/M arrest”; in the data set on HUVEC normal cells [7] (50 μg/mL, 48 h) it was “a decrease in the G1 population, and an increase in the S phase”; in the data set with HUVEC normal cells [7] (24 h, concentration not given) it was “a decrease in the S phase accompanied by an increase in the G2 phase”; in the data set on HUVEC normal cells [7] (48 h, independent of the concentration), “an increase in the S phase and a significant decrease in the G1 phase”. In addition, the cell cycle distribution entry in the data set on SK-MEL-24 tumor cells [8] (5 μg/mL, 24 h and 48 h) is “decreases the G1 phase and increases the G2 phase”; with SK-MEL-24 tumor cells [8] (50 μg/mL, 24 h), “a decrease in the S phase accompanied by an increase in the G2 phase”; in the data set with SK-MEL-24 tumor cells [8] (50 μg/mL, 48 h) it was “a significant decrease in the S phase”. For the same compound, the thermal stability limit result in data set [9] is “approximately 120 °C”.
